In ChEMBL document CHEMBL3600333, “Optimization of a Stable Linker Involved DEVD Peptide-Doxorubicin Conjugate That Is Activated upon Radiation-Induced Caspase-3-Mediated Apoptosis” (J Med Chem, 2015):
The source made the active and inactive calls. The calls are words filed in the database; no cut-off is given here. Numbered stars: 1 amine (or outer) side, 2 acyl side, 3 side chain; on linkers, the order of the positions; unused ones are H or OH. Square brackets hold non-standard residues; d marks the D form. Peptide text beside a SMILES is read from it. * marks the point of attachment. Doxorubicin(3'-N) = COc1cccc2c1C(=O)c1c(O)c3c(c(O)c1C2=O)C[C@@](O)(C(=O)CO)C[C@@H]3O[C@H]1C[C@H](N*)[C@H](O)[C@H](C)O1; Mal(S(CH2)2NH)(CH2)5CO = O=C1CC(SCCN[*:1])C(=O)N1CCCCCC(=O)[*:2]

Key:
MDA-MB-231 [1] = experiment: Cytotoxicity against human MDA-MB-231 cells assessed as cell viability after 48 hrs by MTT assay; assay type: functional, cell-based; conditions: for IC50: MDA-MB-231, 48 h
MDA-MB-231 [2] = experiment: Induction of apoptosis in human MDA-MB-231 cells assessed as downregulation of procaspase-3 expression at 1 to 100 uM after 48 hrs by Western blot analysis; assay type: functional, cell-based
[3] = Octanol-water partition coefficient, log P of the compound at 100 ug after 3 hrs by shake-flask method; assay type: physicochemical
[4] = Drug uptake in nucleus of human MDA-MB-231 cells at 10 uM after 18 hrs by DAPI staining-based confocal laser scanning microscopic analysis; assay type: ADME, cell-based; conditions: mda-mb-231, 18 h
MDA-MB-231 [5] = experiment: Induction of apoptosis in human MDA-MB-231 cells assessed as upregulation of cleaved caspase-3 expression after 48 hrs by Western blot analysis; assay type: functional, cell-based
[6] = Retention time of the compound treated with (6S,9S,12S,15S,18S)-1,6-diamino-12-(2-carboxyethyl)-9-(carboxymethyl)-18-(2-(1-(6-((2S,3S,4S,6R)-3-hydroxy-2-methyl-6-((1S,3S)-3,5,12-trihydroxy-3-(2-hydroxyacetyl)-10-methoxy-6,11-dioxo-1,2,3,4,6,11-hexahydrotetracen-1-yloxy)tetrahydro-2H-pyran-4-ylamino)-6-oxohexyl)-2,5-dioxopyrrolidin-3-ylthio)ethylcarbamoyl)-1-imino-15-isopropyl-7,10,13,16-tetraoxo-2,8,11,14,17-pentaazaicosan-20-oic acid at 100 uM by HPLC analysis in presence of recombinant human caspase-3; assay type: physicochemical
[7] = Drug uptake in cytoplasm of human MDA-MB-231 cells at 10 uM after 18 hrs by DAPI staining-based confocal laser scanning microscopic analysis; assay type: ADME, cell-based; conditions: mda-mb-231, 18 h
[8] = Drug uptake in nucleus of human MDA-MB-231 cells assessed as doxorubicin moiety level at 5 uM preincubated for 24 hrs followed by exposure to 5 Gy linear X-ray measured at 6 hrs by DAPI staining-based fluorescence microscopic analysis; assay type: ADME, cell-based; conditions: mda-mb-231, 6 h
[9] = Retention time of the compound at 100 uM after 60 mins by HPLC analysis in absence of recombinant human caspase-3; assay type: physicochemical; conditions: 1 h
Caspase-3 = target: T1, Caspase-3 (Homo sapiens, UniProt P42574); experiment: Prodrug conversion assessed as recombinant human caspase-3-mediated compound 8 formation at 100 uM after 60 mins by HPLC analysis in presence of caspase-3 inhibitor Ac-DEVD-CHO; assay type: ADME; conditions: 1 h
T1 sequence (P42574 whole entry): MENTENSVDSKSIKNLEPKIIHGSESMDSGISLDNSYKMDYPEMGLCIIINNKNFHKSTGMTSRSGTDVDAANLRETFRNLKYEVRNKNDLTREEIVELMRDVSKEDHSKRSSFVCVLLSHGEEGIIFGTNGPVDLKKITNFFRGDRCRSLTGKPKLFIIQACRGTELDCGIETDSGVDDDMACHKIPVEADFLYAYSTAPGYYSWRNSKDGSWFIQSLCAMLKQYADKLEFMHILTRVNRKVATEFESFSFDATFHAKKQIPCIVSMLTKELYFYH

[10] = Drug uptake in nucleus of human MDA-MB-231 cells assessed as doxorubicin moiety level at 5 uM preincubated for 24 hrs followed by exposure to 5 Gy linear X-ray measured at 24 hrs by DAPI staining-based fluorescence microscopic analysis; assay type: ADME, cell-based; conditions: mda-mb-231, 24 h
[11] = Drug uptake in nucleus of human MDA-MB-231 cells assessed as doxorubicin moiety level at 100 uM using cyanine5.5-labeled compound after 1 hr by DAPI staining-based confocal laser scanning microscopic analysis in presence of recombinant human caspase-3; assay type: ADME, cell-based; conditions: mda-mb-231, 1 h
[12] = Prodrug conversion assessed as 6-(3-(2-aminoethylthio)-2,5-dioxopyrrolidin-1-yl)-N-((2S,3S,4S,6R)-3-hydroxy-2-methyl-6-((1S,3S)-3,5,12-trihydroxy-3-(2-hydroxyacetyl)-10-methoxy-6,11-dioxo-1,2,3,4,6,11-hexahydrotetracen-1-yloxy)tetrahydro-2H-pyran-4-yl)hexanamide formation at 100 uM after 60 mins by HPLC analysis in absence of recombinant human caspase-3; assay type: physicochemical; conditions: 1 h
MDA-MB-231 [13] = experiment: Cytotoxicity against human MDA-MB-231 cells assessed as cell viability at 100 uM after 48 hrs by MTT assay in absence of recombinant human caspase-3; assay type: functional, cell-based
[14] = Antitumor activity against mouse SCC7 cells allografted in Balb-c/nu mouse assessed as tumor growth inhibition at 5 mg/kg molar equivalent of doxorubicin, iv administered daily for 7 days without X-ray treatment relative to control; assay type: functional, SCC-7
Mus musculus [15] = experiment: Toxicity in Balb-c/nu mouse allografted with mouse SCC7 cells assessed as decrease in body weight at 5 mg/kg molar equivalent of doxorubicin, iv administered daily for 7 days with 10 Gy X-ray treatment on first day of drug administration measured until day 14; assay type: organism-based, SCC-7; conditions: in vivo, 168 h
Mus musculus [16] = experiment: Toxicity in Balb-c/nu mouse allografted with mouse SCC7 cells assessed as decrease in body weight at 5 mg/kg molar equivalent of doxorubicin, iv administered daily for 7 days without X-ray treatment measured until day 14; assay type: organism-based, SCC-7; conditions: in vivo, 168 h
[17] = Drug uptake in cytoplasm of human MDA-MB-231 cells assessed as DEVD moiety level at 100 uM using cyanine5.5-labeled compound after 1 hr by DAPI staining-based confocal laser scanning microscopic analysis in presence of recombinant human caspase-3; assay type: ADME, cell-based; conditions: mda-mb-231, 1 h
MDA-MB-231 [18] = experiment: Induction of apoptosis in human MDA-MB-231 cells assessed as upregulation of cleaved caspase-3 expression preincubated with recombinant human caspase-3 measured after 48 hrs by Western blot analysis; assay type: functional, cell-based
MDA-MB-231 [19] = experiment: Cytotoxicity against human MDA-MB-231 cells assessed as cell viability at 0.1 to 100 uM after 48 hrs by MTT assay in presence of recombinant human caspase-3; assay type: functional, cell-based
MDA-MB-231 [20] = experiment: Induction of apoptosis in human MDA-MB-231 cells assessed as downregulation of procaspase-3 expression at 1 to 100 uM preincubated with recombinant human caspase-3 measured after 48 hrs by Western blot analysis; assay type: functional, cell-based
MDA-MB-231 [21] = experiment: Cytotoxicity against human MDA-MB-231 cells assessed as cell viability up to 10 uM after 48 hrs by MTT assay in absence of recombinant human caspase-3; assay type: functional, cell-based
Mus musculus [22] = experiment: Toxicity in Balb-c/nu mouse allografted with mouse SCC7 cells assessed as mortality at 5 mg/kg molar equivalent of doxorubicin, iv administered daily for 7 days measured until day 14; assay type: organism-based, SCC-7; conditions: in vivo, 168 h
[23] = Stability of the compound at 100 uM after 60 mins by HPLC analysis in absence of recombinant human caspase-3; assay type: physicochemical; conditions: 1 h
MDA-MB-231 [24] = experiment: Induction of apoptosis in human MDA-MB-231 cells assessed as upregulation of cleaved caspase-3 expression at 1 to 100 uM pretreated with X-ray measured after 24 to 72 hrs by Western blot analysis; assay type: functional, cell-based
[25] = Antitumor activity against mouse SCC7 cells allografted in Balb-c/nu mouse assessed as tumor growth inhibition at 5 mg/kg molar equivalent of doxorubicin, iv administered daily for 7 days with 10 Gy X-ray treatment on first day of drug administration (reference value: 54%); assay type: functional, SCC-7
MDA-MB-231 [26] = experiment: Cytotoxicity against human MDA-MB-231 cells assessed as decrease in cell viability at 5 uM with 5 Gy linear X-ray treatment measured at 48 hrs by MTT assay (reference value: 53%); assay type: functional
MDA-MB-231 [27] = experiment: Cytotoxicity against human MDA-MB-231 cells assessed as decrease in cell viability at 5 uM with 5 Gy linear X-ray treatment after 24 hrs by MTT assay; assay type: functional, cell-based
MDA-MB-231 [28] = experiment: Induction of apoptosis in human MDA-MB-231 cells assessed as upregulation of cleaved caspase-3 expression up to 100 uM after 48 hrs by Western blot analysis; assay type: functional, cell-based
MDA-MB-231 [29] = experiment: Induction of apoptosis in human MDA-MB-231 cells assessed as change in cell morphology at 5 uM preincubated for 24 hrs followed by exposure to 5 Gy linear X-ray measured after 6 to 24 hrs by DAPI staining-based fluorescence microscopic analysis; assay type: functional
Mus musculus [30] = experiment: Toxicity in Balb-c/nu mouse allografted with mouse SCC7 cells assessed as mortality at 5 mg/kg, iv administered daily measured within 6 days; assay type: organism-based, SCC-7; conditions: in vivo, 144 h

Compound: COc1cccc2c1C(=O)c1c(O)c3c(c(O)c1C2=O)C[C@@](O)(C(=O)CO)C[C@@H]3O[C@H]1C[C@H](NC(=O)CCCCCN2C(=O)CC(SCCN)C2=O)[C@H](O)[C@H](C)O1 (some centres not stated)
- IC50 (MDA-MB-231 [1]): 4.6 µM
- Activity (MDA-MB-231 [2]): Active
- logP at 3 h [3]: -0.383
- Drug uptake [4]: Active
- Activity (MDA-MB-231 [5]): Dose-dependent effect
- Retention_time [6]: 20.6 min

Compound: COc1cccc2c1C(=O)c1c(O)c3c(c(O)c1C2=O)C[C@@](O)(C(=O)CO)C[C@@H]3O[C@H]1C[C@H](NC(=O)CN2C(=O)CC(SCCN)C2=O)[C@H](O)[C@H](C)O1 (some centres not stated)
- IC50 (MDA-MB-231 [1]): > 100 µM
- logP at 3 h [3]: -1.04
- Drug uptake [4]: Active
- Drug uptake [7]: Active

Compound: COc1cccc2c1C(=O)c1c(O)c3c(c(O)c1C2=O)C[C@@](O)(C(=O)CO)C[C@@H]3O[C@H]1C[C@H](NC(=O)CCCc2ccc(N3C(=O)CC(SCCN)C3=O)cc2)[C@H](O)[C@H](C)O1 (some centres not stated)
- IC50 (MDA-MB-231 [1]): > 100 µM
- logP at 3 h [3]: 0.313
- Drug uptake [4]: Active
- Drug uptake [7]: Active

Compound: COc1cccc2c1C(=O)c1c(O)c3c(c(O)c1C2=O)C[C@@](O)(C(=O)CO)C[C@@H]3O[C@H]1C[C@H](NC(=O)C2CCC(CN3C(=O)CC(SCCN)C3=O)CC2)[C@H](O)[C@H](C)O1 (some centres not stated)
- Activity (MDA-MB-231 [1]): Dose-dependent effect
- IC50 (MDA-MB-231 [1]): > 100 µM
- logP at 3 h [3]: -0.022
- Drug uptake [4]: Active
- Drug uptake [7]: Active

Compound: COc1cccc2c1C(=O)c1c(O)c3c(c(O)c1C2=O)C[C@@](O)(C(=O)CO)C[C@@H]3O[C@H]1C[C@H](NC(=O)CCCCCN2C(=O)CC(SCCNC(=O)[C@H](CC(=O)O)NC(=O)[C@@H](NC(=O)[C@H](CCC(=O)O)NC(=O)[C@H](CC(=O)O)NC(=O)[C@@H](N)CCCNC(=N)N)C(C)C)C2=O)[C@H](O)[C@H](C)O1 (some centres not stated) (H-RDEVD[Mal(S(CH2)2NH)(CH2)5CO]-{Doxorubicin(3'-N)})
- Drug uptake [8]: Not Active
- Retention_time [9]: 21.4 min
- Drug metabolism (Caspase-3): metabolite_notdetected
- Drug uptake [10]: Active
- Drug uptake [11]: Active
- Drug metabolism [12]: metabolite_notdetected
- Activity (MDA-MB-231 [13]): Active
- TGI [14]: 15%
- Activity (Mus musculus [15]): Non-toxic
- Activity (Mus musculus [16]): Non-toxic
- Drug uptake [17]: Active
- Activity (MDA-MB-231 [18]): Dose-dependent effect
- Activity (MDA-MB-231 [19]): Active
- Activity (MDA-MB-231 [20]): Active
- Activity (MDA-MB-231 [21]): inactive
- Drug uptake [4]: Active
- Activity (Mus musculus [22]): Non-toxic
- Stability [23]: Unstable
- Activity (MDA-MB-231 [24]): Active
- TGI [25]: 79%
- Activity (MDA-MB-231 [26]): 75%
- Activity (MDA-MB-231 [27]): inactive
- Activity (MDA-MB-231 [28]): inactive
- Drug uptake [7]: Active
- Activity (MDA-MB-231 [29]): Active

Compound: COc1cccc2c1C(=O)c1c(O)c3c(c(O)c1C2=O)C[C@@](O)(C(=O)CO)C[C@@H]3O[C@H]1CC(NC(=O)C2CCC(CN3C(=O)CC(SC[C@H](N)C(=O)O)C3=O)CC2)[C@H](O)[C@H](C)O1 (single isomer, unassigned)
- Drug uptake [4]: Not Active
- Drug uptake [7]: Active

Compound: COc1cccc2c1C(=O)c1c(O)c3c(c(O)c1C2=O)C[C@@](O)(C(=O)CO)C[C@@H]3O[C@H]1C[C@H](NC(=O)c2cccc(N3C(=O)CC(SCCN)C3=O)c2)[C@H](O)[C@H](C)O1 (some centres not stated)
- IC50 (MDA-MB-231 [1]): > 100 µM
- logP at 3 h [3]: -0.121
- Drug uptake [4]: Active
- Drug uptake [7]: Active

Compound: COc1cccc2c1C(=O)c1c(O)c3c(c(O)c1C2=O)C[C@@](O)(C(=O)CO)C[C@@H]3O[C@H]1C[C@H](N)[C@H](O)[C@H](C)O1 [DOXORUBICIN]
- Activity (Mus musculus [30]): Toxic
- Drug uptake [4]: Active
